Test results published in patent publication US12281304B2, “Compositions and methods for treating and preventing muscular disorders and dystrophies, steroid side effects, and inflammation” (Children's National Medical Center, priority 2018, dated 2025).

Tested on: miRNAs in diaphragm muscle of mdx mice
Assay: TaqMan low-density array (TLDA) miRNA profiling of diaphragm, discovery set (prophylactic mdx trial)
Format: in vivo, mouse
From the text: Archival muscle samples (diaphragm) from two separate preclinical studies were obtained, with each trial showing a significant benefit from both prednisolone and vamorolone drug treatments (23). Prednisolone was used because it is the active form of prednisone, the current DMD standard of care. The first, “discovery set” of diaphragm muscles was from a prophylactic trial design where 2-week old (postnatal day 15) mdx or wild type control mice received oral dosing for 6 weeks with vehicle (cherry syrup), prednisolone (5 mg/kg), or vamorolone (15 mg/kg) as previously reported (23). The second, “validation set” of diaphragm muscles was from an extended trial in older mice where mdx or wild type mice were subjected to treadmill running to unmask mild phenotypes. Mice in this validation set were treated with either vehicle, prednisolone (5 mg/kg) or vamorolone (45 mg/kg) for four months beginning at two months of age (23). At the endpoint of each trial, diaphragm muscles were harvested and frozen in liquid nitrogen-cooled isopentane.
We extracted total RNA from 5 diaphragm muscles per treatment group in the discovery set of samples from 8-week old mice. RNA was extracted using a modified TRIzol protocol with isopropanol precipitation at −20° C. overnight. This RNA was reverse transcribed to cDNA using a High Capacity cDNA Reverse Transcription Kit with RNase Inhibitor (ThermoFisher; Carlsbad, Calif.), with miRNA-specific Megaplex RT Primers, Rodent Pools Set version 3.0 (ThermoFisher; Carlsbad, Calif.). Levels of each of the miRNAs were profiled in the discovery set using TAQMAN Array Rodent MiRNA A+B Cards Set v3.0 (ThermoFisher; Carlsbad, Calif.).
In the discovery set experiments, levels of each miRNA were quantified in TaqMan low-density arrays using ThermoFisher Cloud software with the Relative Quantification Application (ThermoFisher; Carlsbad, Calif.) tool. Data was analyzed by ANOVA with post-hoc comparison of each group to the mdx vehicle-treated group. […] A P-value of P≤0.05 was set as the significance threshold, without adjustment for multiple comparisons. To reduce false-positive discovery in this setting, an evidence-based approach was used to identify efficacy associated miRNAs where 1) results from the multiple groups were cross-referenced, and 2) all candidate miRNAs identified in this discovery set were then assayed in a separate validation set of mice. For the validation set experiments, levels of each individual miRNA were assayed in samples from a second, independent preclinical trial in adult mdx mice. Data from individual TaqMan Assays was quantified using QuantStudio Real-Time PCR version 1.3 software (Applied Biosystems; Foster City, Calif.). The levels of all miRNAs were normalized to the geometric mean of multiple control genes (60, 70). Comparison of groups was made by ANOVA with Holm-Sidak post-hoc test comparing each group to mdx vehicle.
To visualize behavior of miRNAs within individual mice for each group, heat map images were generated. Heat maps were generated using Rq values of TLDA array data exported from the Relative Quantification Application of the ThermoFisher Cloud software (ThermoFisher; Carlsbad, Calif.) tool. Heat maps of miRNA expression were produced using Hierarchical Clustering Explorer Version 3.5 (at www.cs.umd.edu/hcil/multi-cluster/) produced by the Human Computer Interaction Laboratory (University of Maryland; College Park, Md.).
To examine miRNA expression TaqMan low density qPCR array cards were used to profile approximately 750 miRNAs within diaphragm muscle from a discovery set of mice. Samples for this experiment came from a trial that utilized a prophylactic approach (23). Briefly, mdx mice undergo a stage of peak severity characterized by widespread inflammation and necrosis from approximately 3-8 weeks of age, followed by a recovery stage where mice show milder phenotypes (25). […]

[1] = discovery set diaphragm muscle, mdx mice, Pred 5 mg/kg, Vam 15 mg/kg
[2] = mdx diaphragm, vs untreated mdx, Pred 5 mg/kg, Vam 15 mg/kg

Q: Which results are given for `C[C@@H]1C[C@H]2[C@@H]3CCC4=CC(=O)C=C[C@]4(C)C3=CC[C@]2(C)[C@@]1(O)C(=O)CO` [vamorolone]?
A: miRNA 142-3p % expression in comparison to mdx vehicle [1]: 65 ± 20 %; miRNA 142-5p % expression in comparison to mdx vehicle [1]: 61 ± 23 %; miRNA 146a % expression in comparison to mdx vehicle [1]: 52 ± 12 %; miRNA 301a % expression in comparison to mdx vehicle [1]: 77 ± 12 %; miRNA 324-3p % expression in comparison to mdx vehicle [1]: 75 ± 13 %; miRNA 455-3p % expression in comparison to mdx vehicle [1]: 61 ± 14 %; miRNA 455-5p % expression in comparison to mdx vehicle [1]: 64 ± 15 %; miRNA 497 % expression in comparison to mdx vehicle [1]: 65 ± 11 %; miRNA 652 % expression in comparison to mdx vehicle [1]: 64 ± 18 %; number of miRNAs significantly changed in dystrophic muscle (mdx diaphragm, 8-week-old mice, oral dosing 6 weeks, prednisolone 5 mg/kg, vamorolone 15 mg/kg, versus untreated mdx, P≤0.05): 41; number of miRNAs significantly increased by treatment (mdx diaphragm, discovery set, prednisolone 5 mg/kg, vamorolone 15 mg/kg, P≤0.05): none of the miRNAs queried in the TLDA cards were significantly increased; expression of the nine efficacy-associated miRNAs elevated in dystrophy (mdx diaphragm, discovery set, versus mdx vehicle): returned towards healthy wild type levels; Rq hsa-let-7i#-002172 [2]: 0.939; Rq hsa-miR-30e-3p-000422 [2]: 0.849; Rq hsa-miR-22#-002301 [2]: 0.78; Rq hsa-miR-140-3p-002234 [2]: 0.903; Rq hsa-miR-143-000466 [2]: 1.29; Rq hsa-miR-154#-000478 [2]: 0.689; Rq hsa-miR-190b-002263 [2]: 0.822; Rq hsa-miR-200c-000505 [2]: 0.453; Rq hsa-miR-206-000510 [2]: 0.983; Rq hsa-miR-213-000516 [2]: 0.839; Rq hsa-miR-214#-002293 [2]: 0.889; Rq hsa-miR-214-000517 [2]: 0.994; Rq hsa-miR-376a#-001287 [2]: 0.845; Rq hsa-miR-455-001280 [2]: 0.637; Rq hsa-miR-744#-002325 [2]: 0.816; Rq mmu-let-7e-002406 [2]: 0.665; Rq mmu-let-7a-000377 [2]: 0.667; Rq mmu-let-7b-000378 [2]: 0.754; Rq mmu-let-7c-1#-002479 [2]: 1.038; Rq mmu-let-7c-000379 [2]: 0.691; Rq mmu-let-7i-002221 [2]: 0.777; Rq mmu-let-7d#-001178 [2]: 0.61; Rq mmu-let-7d-002283 [2]: 0.789; Rq mmu-miR-1-002222 [2]: 0.897; Rq mmu-miR-15a-000389 [2]: 0.719; Rq mmu-miR-16-000391 [2]: 0.781; Rq mmu-miR-18a-002422 [2]: 1.288; Rq mmu-miR-19a-000395 [2]: 0.886; Rq mmu-miR-20a#-002491 [2]: 0.825; Rq mmu-miR-21#-002493 [2]: 0.647; Rq mmu-miR-21-000397 [2]: 0.677; Rq mmu-miR-23b-000400 [2]: 0.675; Rq mmu-miR-25-000403 [2]: 0.867; Rq mmu-miR-26a-000405 [2]: 0.766; Rq mmu-miR-27b-000409 [2]: 0.82; Rq mmu-miR-28-000411 [2]: 0.842; Rq mmu-miR-30e-002223 [2]: 0.847; Rq mmu-miR-30a-000417 [2]: 0.834; Rq mmu-miR-30b-000602 [2]: 0.855; Rq mmu-miR-30c-000419 [2]: 0.818; Rq mmu-miR-31#-002495 [2]: 0.821; Rq mmu-miR-31-000185 [2]: 1.032; Rq mmu-miR-34a-000426 [2]: 0.789; Rq mmu-miR-34b-3p-002618 [2]: 0.798; Rq mmu-miR-34c#-002584 [2]: 0.748; Rq mmu-miR-34c-000428 [2]: 0.811; Rq mmu-miR-99b-000436 [2]: 0.913; Rq mmu-miR-100-000437 [2]: 0.721; Rq mmu-miR-103-000439 [2]: 0.628; Rq mmu-miR-122-002245 [2]: 0.072; Rq mmu-miR-125a-3p-002199 [2]: 0.828; Rq mmu-miR-125b#-002508 [2]: 0.803; Rq mmu-miR-125b-3p-002378 [2]: 0.866; Rq mmu-miR-125b-5p-000449 [2]: 0.682; Rq mmu-miR-126-3p-002228 [2]: 0.809; Rq mmu-miR-126-5p-000451 [2]: 0.812; Rq mmu-miR-127-000452 [2]: 1.107; Rq mmu-miR-128a-002216 [2]: 0.847; Rq mmu-miR-130a-000454 [2]: 0.717; Rq mmu-miR-130b#-002460 [2]: 1.164; Rq mmu-miR-130b-000456 [2]: 0.88; Rq mmu-miR-133a-002246 [2]: 0.996; Rq mmu-miR-134-001186 [2]: 1.353; Rq mmu-miR-136-002511 [2]: 0.942; Rq mmu-miR-138#-002554 [2]: 0.384; Rq mmu-miR-140-001187 [2]: 0.818; Rq mmu-miR-142-3p-000464 [2]: 0.626; Rq mmu-miR-142-5p-002248 [2]: 0.576; Rq mmu-miR-143-002249 [2]: 0.716; Rq mmu-miR-145-002278 [2]: 0.722; Rq mmu-miR-146a-000468 [2]: 0.513; Rq mmu-miR-146b#-002453 [2]: 0.275; Rq mmu-miR-146b-001097 [2]: 0.645; Rq mmu-miR-148a-000470 [2]: 0.496; Rq mmu-miR-148b-000471 [2]: 0.568; Rq mmu-miR-150#-002570 [2]: 0.293; Rq mmu-miR-150-000473 [2]: 0.692; Rq mmu-miR-151-3p-001190 [2]: 0.971; Rq mmu-miR-152-000475 [2]: 0.785; Rq mmu-miR-154-000477 [2]: 0.898; Rq mmu-miR-155-002571 [2]: 0.876; Rq mmu-miR-181a-000480 [2]: 0.773; Rq mmu-miR-181c-000482 [2]: 0.71; Rq mmu-miR-185-002271 [2]: 0.886; Rq mmu-miR-186-002285 [2]: 0.994; Rq mmu-miR-191-002299 [2]: 0.815; Rq mmu-miR-193#-002577 [2]: 0.682; Rq mmu-miR-195-000494 [2]: 0.669; Rq mmu-miR-199a-3p-002304 [2]: 0.722; Rq mmu-miR-199b-001131 [2]: 0.667; Rq mmu-miR-200c-002300 [2]: 0.577; Rq mmu-miR-203-000507 [2]: 0.521; Rq mmu-miR-204-000508 [2]: 0.627; Rq mmu-miR-210-000512 [2]: 0.746; Rq mmu-miR-214-002306 [2]: 0.842
